Data: patent publication US20260224470A1, “Composition For Improving The Aesthetic Appearance Of Hair And Skin Appendages” (priority 2023, published 2026)

Test system: glycogen-phosphorylase (PYGL) gene expression
Test: PYGL gene expression by qRT-PCR in Human Follicle Dermal Papilla Cells
Format: cell-based
Settings: 6 μg/mL; serum-starved HFDPC, 24 h treatment; compared with positive control (starved cells), p<0.005
Method: The PromoCell® Human Follicle Dermal Papilla Cells (HFDPC) cell line was used to test the inhibitory activity on PYGL of maslinic acid and a Swertia chirata extract (dry extract on maltodextrins) alone or as a combination.
HFDPCs (DP; PromoCell GmbH, Heidelberg, Germany, batch 325Z017.1 and 322Z030.1) were grown in base culture medium (Follicle Dermal Papilla Cell Growth Medium) (PromoCell GmbH) supplemented with 4 μL/mL of bovine pituitary gland extract (Bovine Pituitary Extract), 0.04 mL/mL fetal serum, 1 ng/ml recombinant human fibroblast growth factor, 5 μg/mL recombinant human insulin (PromoCell). Cells were cultured with […] primocin (Invivogen, Toulouse, France, #ant-pm-2) in a humidified incubator with 5% CO2 at 37° C.
POSITIVE CONTROL: Cells treated in Follicle Dermal Papilla Cell Growth medium without serum (starved) under the same culture conditions.
NEGATIVE CONTROL: Untreated cells in Follicle Dermal Papilla Cell Growth medium under the same culture conditions.
PYGL gene expression was studied by RT-PCR.
When cells (HFDPC) reached about 80% confluence, they were detached with trypsin/EDTA and seeded at a density of 1×10^6 cells/mL into 12-well plates and incubated at 37° C., 5% CO2 (24 h). […]

## CC1(C)CC[C@]2(C(=O)O)CC[C@]3(C)C(=CC[C@@H]4[C@@]5(C)C[C@@H](O)[C@H](O)C(C)(C)[C@@H]5CC[C@]43C)[C@@H]2C1 [maslinic acid, (2α,3β)-2,3-dihydroxyolean-12-en-28-oic acid]
  inhibition of PYGL gene expression: significantly inhibit (p<0.005)
